Data reported in US20190110476A1, “NOVEL ISOTHIAZOLAMIDES, PROCESSES FOR THEIR PREPARATION AND THEIR USE AS FUNGICIDES” (priority 2014, published 2019).
Marks after values point to notes of the source that are not given here.

Assay: Measurement of LogP values by HPLC on reversed phase columns (EEC directive 79/831 Annex V.A8)
Type: physicochemical
Conditions: for chromatographic logP: HPLC LC-UV, acidic range, 0.1% formic acid in water and acetonitrile as eluent
Description: The abbreviations and numerations of the substituent positions used in the context of the present invention and in the following Tables are explained in detail in the section Examples hereinafter. Also, the LogP values indicated in the following Tables are explained in detail in the section Examples hereinafter. In case LogP values for different diastereoisomers of a specific compound are […], said LogP values are […] by a “+”. […] Measurement of LogP values was performed according to EEC directive 79/831 Annex V.A8 by HPLC (High Performance Liquid Chromatography) on reversed phase columns with the following methods: […] Lambda-max-values were determined using UV-spectra from 200 nm to 400 nm and the peak values of the chromatographic signals

LogP [a] | SMILES | also measured
 | C[C@@H]1CCCC[C@H]1NC(=O)c1snc(N)c1Br (relative stereo) [I-838] | LogP: 2.34[a]
 | C[C@@H]1CCCC[C@H]1NC(=O)c1snc(N)c1Br (relative stereo) [I-839] | LogP: 2.49[a]
 | C[C@H]1[C@H](CNC(=O)c2snc(N)c2Cl)CCC[C@H]1C (relative stereo) [I-1291] | LogP: 3.10[a]
 | C[C@H]1CCCC[C@H]1NC(=O)c1snc(N)c1F (relative stereo) [I-1356] | LogP: 2.11[a]
 | C[C@@H]1CCCC[C@H]1NC(=O)c1snc(N)c1F (relative stereo) [I-1357] | LogP: 2.21[a]
 | C[C@H]1CCCC[C@H]1CNC(=O)c1snc(N)c1I (relative stereo) [I-1540] | LogP: 2.73[a]
 | C[C@H]1CCCC[C@H]1CNC(=O)c1snc(N)c1I (relative stereo) [I-1541] | LogP: 2.67[a]
 | COc1ccc(CNc2nsc(C(=O)N[C@@H]3CCCC[C@@H]3C)c2Cl)cc1 (relative stereo) [I-1550] | LogP: 4.18[a]
 | COc1ccc(CNc2nsc(C(=O)N[C@@H]3CCCC[C@H]3C)c2Cl)cc1 (relative stereo) [I-1551] | LogP: 4.39[a]
 | Nc1nsc(C(=O)N[C@@H]2CCCC[C@H]2Cl)c1I (relative stereo) [I-1565] | LogP: 2.12[a]
 | Cc1c(N)nsc1C(=O)NCC1CCCC1O (single isomer, unassigned) [I-706] | LogP: 0.79[a]
 | Cc1c(N)nsc1C(=O)NCC1CCCC1O (single isomer, unassigned) [I-707] | LogP: 0.82[a]
 | Nc1nsc(C(=O)NCC2CCCC2O)c1Cl (single isomer, unassigned) [I-772] | LogP: 1.09[a]
 | Nc1nsc(C(=O)NCC2CCCC2O)c1Cl (single isomer, unassigned) [I-773] | LogP: 0.88[a]
 | O=C(NCC1CCCCC1)c1snc(Cl)c1Cl [E-II-001, 3,4-dichloro-N-(cyclohexylmethyl)isothiazole-5-carboxamide] | chromatographic logP: 4.11
4.56^[a] | C[C@H](NC(=O)c1snc(Cl)c1Cl)C1CCCCC1 [E-II-002] | 
3.52^[a] | O=C(NCc1ccccc1Cl)c1snc(Cl)c1Cl [E-II-003] | 
2.05^[a] | O=C(NCC1CCOCC1)c1snc(Cl)c1Cl [E-II-004] | 
2.18^[a] | O=C(NCC1CCCOC1)c1snc(Cl)c1Cl (stereo not shown) [E-II-005] | 
2.20^[a] | O=C(NCC1CCCO1)c1snc(Cl)c1Cl (stereo not shown) [E-II-006] | 
1.84^[a] | O=C(NCC1CCOC1)c1snc(Cl)c1Cl (stereo not shown) [E-II-007] | 
3.23^[a] | O=C(NCc1ccccc1F)c1snc(Cl)c1Cl [E-II-008] | 
2.87^[a] | O=C(NCC1CCCCO1)c1snc(Cl)c1Cl (stereo not shown) [E-II-010] | 
3.17^[a] | O=C(NCc1cc(F)ccc1F)c1snc(Cl)c1Cl [E-II-011] | 
5.34^[a] | O=C(NC1CCCC2CCCCC21)c1snc(Cl)c1Cl (stereo not shown) [E-II-012] | 
5.39^[a] | CC(C)(NC(=O)c1snc(Cl)c1Cl)C1CCCCC1 [E-II-013] | 
4.01^[a] | O=C(c1snc(Cl)c1Cl)N(Cc1ccc(F)cc1F)C1CC1 [E-II-014] | 

LogP [a] | SMILES | also measured
5.65^[a] | Cc1ccc(C(C)(C)C)c(CN(C(=O)c2snc(Cl)c2Cl)C2CC2)c1 [E-II-015] | 
2.21^[a] | O=C(NCC1CCC(C(=O)NC2CC2)CC1)c1snc(Cl)c1Cl (stereo not shown) [E-II-016] | 
5.02 | CC1(C)C2CCC1(C)C(NC(=O)c1snc(Cl)c1Cl)C2 (stereo not shown) [E-II-017] | LogP [b]: 4.96
0.66^[a] | CN1C2CCC1CC(NC(=O)c1snc(Cl)c1Cl)C2 (stereo not shown) [E-II-018] | 
3.70 | O=C(NC1CCc2ccccc21)c1snc(Cl)c1Cl (stereo not shown) [E-II-020] | LogP [b]: 3.63
4.07 | O=C(NC1CCCc2ccccc21)c1snc(Cl)c1Cl (stereo not shown) [E-II-021] | LogP [b]: 3.98
5.07 | CC1(C)C2CCC1(C)C(NC(=O)c1snc(Cl)c1Cl)C2 (stereo not shown) [E-II-022] | LogP [b]: 4.94
5.13 | CC1(C)C2CCC(CNC(=O)c3snc(Cl)c3Cl)C1C2 (stereo not shown) [E-II-023] | LogP [b]: 5.02
5.72 | CC1CCC(C(C)C)C(NC(=O)c2snc(Cl)c2Cl)C1 (stereo not shown) [E-II-024] | LogP [b]: 5.64
5.27^[a] | O=C(NC1CCCC2CCCCC21)c1snc(Cl)c1Cl (stereo not shown) [E-II-025] | 
5.43^[a] | O=C(NC1CCCC2CCCCC21)c1snc(Cl)c1Cl (stereo not shown) [E-II-026] | 
5.27 | CON(C(=O)c1snc(Cl)c1Cl)C(C)C1CCCCC1 (stereo not shown) [E-II-028] | LogP [b]: 5.09
5.04 | O=C(NC(CCc1ccccc1)C1CCC1)c1snc(Cl)c1Cl (stereo not shown) [E-II-029] | LogP [b]: 4.91
4.03 | COC(=O)CC(NC(=O)c1snc(Cl)c1Cl)C1CCCCC1 (stereo not shown) [E-II-030] | LogP [b]: 3.95
5.19 | O=C(NC(c1ccccc1)C1CCCCC1)c1snc(Cl)c1Cl (stereo not shown) [E-II-031] | LogP [b]: 5.05
2.72 | CC(NC(=O)c1snc(Cl)c1Cl)C1CCCO1 (stereo not shown) [E-II-032] | LogP [b]: 2.69
4.40^[a] | O=C(NCCC1CCCCC1)c1snc(Cl)c1Cl [E-II-033] | 
4.87 | O=C(NC(Cc1ccccc1)C1CC=CCC1)c1snc(Cl)c1Cl (stereo not shown) [E-II-034] | LogP [b]: 4.75
1.42^[a] | COC(=O)c1snc(N)c1Cl [E-VII-001] | 
4.74^[a] | COc1ccc(CNc2nsc(C(=O)OC(C)(C)C)c2Cl)cc1 [E-VII-002] | 
2.66^[a] | CC(C)(C)OC(=O)c1snc(N)c1Cl [E-VII-003] | 
4.36^[a] | COc1ccc(CNc2nsc(C(=O)OC(C)C)c2Cl)cc1 [E-VII-004] | 
2.17 | CC(C)OC(=O)c1snc(N)c1Cl [E-VII-005] | LogP [b]: 2.16
4.40^[a] | COC(=O)c1snc(N=C(c2ccccc2)c2ccccc2)c1Cl [E-VII-006] | 
 | CCOC(=O)c1snc(N(Cc2ccccc2)Cc2ccccc2)c1Br [E-VII-008, ethyl 4-bromo-3-(dibenzylamino)-1,2-thiazole-5-carboxylate] | chromatographic logP: 5.8
2.62^[a] | CCOC(=O)c1snc(NC(=O)c2ccc(F)cc2)c1Cl [E-VII-010] | 
5.00^[a] | CC(C)OC(=O)c1snc(N(C(=O)OC(C)(C)C)C(=O)OC(C)(C)C)c1Cl [E-VII-011] | 

LogP [a] | SMILES | also measured
 | CCOC(=O)c1cc(N(Cc2ccccc2)Cc2ccccc2)ns1 [E-VII-012, ethyl 3-(dibenzylamino)-1,2-thiazole-5-carboxylate] | chromatographic logP: 5.13
5.73^[a] | CCOC(=O)c1snc(N(Cc2ccccc2)Cc2ccccc2)c1Cl [E-VII-013] | 
2.48^[a] | CCOC(=O)c1snc(NC(=O)C(C)(C)C)c1Cl [E-VII-018] | 
2.45^[a] | CCOC(=O)c1snc(NC(=O)c2ccccc2)c1Cl [E-VII-020] | 
2.47^[a] | CCOC(=O)c1snc(N(C(C)=O)C(C)=O)c1Cl [E-VII-022] | 
 | CCOC(=O)c1snc(N(Cc2ccccc2)Cc2ccccc2)c1C(F)F [E-VII-023, ethyl 3-(dibenzylamino)-4-(difluoromethyl)-1,2-thiazole-5-carboxylate] | chromatographic logP: 5.68
 | CCOC(=O)c1snc(N(Cc2ccccc2)Cc2ccccc2)c1C1CC1 [E-VII-024, ethyl 4-cyclopropyl-3-(dibenzylamino)isothiazole-5-carboxylate] | chromatographic logP: 5.91
6.11^[a] | CCOC(=O)c1snc(N(Cc2ccccc2)Cc2ccccc2)c1-c1ccc(F)cc1 [E-VII-031] | 
1.93^[a] | CCOC(=O)c1snc(N)c1Br [E-VII-060] | 
4.56 | COc1ccc(CNc2nsc(C(=O)OC(C)C)c2NCc2ccc(OC)cc2)cc1 [E-VII-063] | LogP [b]: 4.51
3.87^[a] | CCOC(=O)c1snc(NCc2ccc(OC)cc2)c1Cl [E-VII-069] | 
3.63^[a] | COc1ccc(CNc2cc(C(=O)OC(C)C)sn2)cc1 [E-VII-070] | 
1.35^[a] | CC(C)(C)OC(=O)Nc1nsc(C(=O)O)c1Cl [E-VIII-001] | 
2.21^[a] | COc1ccc(CNc2nsc(C(=O)O)c2Cl)cc1 [E-VIII-002] | 
 | O=C(O)c1cc(N(Cc2ccccc2)Cc2ccccc2)ns1 [E-VIII-003, 3-(dibenzylamino)-1,2-thiazole-5-carboxylic acid] | chromatographic logP: 3.35
3.83^[a] | O=C(O)c1snc(N(Cc2ccccc2)Cc2ccccc2)c1Br [E-VIII-004] | 
3.75^[a] | O=C(O)c1snc(N(Cc2ccccc2)Cc2ccccc2)c1Cl [E-VIII-005] | 
 | O=Cc1c(N(Cc2ccccc2)Cc2ccccc2)nsc1C(=O)O [E-VIII-006, 3-(dibenzylamino)-4-formyl-1,2-thiazole-5-carboxylic acid] | chromatographic logP: 3.21
1.02^[a] | O=C(Nc1nsc(C(=O)O)c1Cl)c1ccc(F)cc1 [E-VIII-007] | 
 | O=C(O)c1snc(N(Cc2ccccc2)Cc2ccccc2)c1C1CC1 [E-VIII-008, 4-cyclopropyl-3-(dibenzylamino)isothiazole-5-carboxylic acid] | chromatographic logP: 4.11
 | O=C(O)c1snc(N(Cc2ccccc2)Cc2ccccc2)c1C(F)F [E-VIII-009, 3-(dibenzylamino)-4-(difluoromethyl)-1,2-thiazole-5-carboxylic acid] | chromatographic logP: 3.78
4.49^[a] | O=C(O)c1snc(N(Cc2ccccc2)Cc2ccccc2)c1-c1ccc(F)cc1 [E-VIII-010] | 
 | Nc1nsc(C(=O)O)c1Cl [E-VIII-012, 3-amino-4-chloroisothiazole-5-carboxylic acid] | chromatographic logP: -0.13
1.87^[a] | COc1ccc(CNc2cc(C(=O)O)sn2)cc1 [E-VIII-016] | 
 | Nc1nsc(C(=O)NC2CCCCC2)c1Cl [I-001] | LogP: 2.10[a]
 | Nc1nsc(C(=O)NCC2CCCCC2)c1Cl [I-002] | LogP: 2.40[a]
